In patent publication US20230390273A1, “4-PHENYL-TETRAHYDROPYRIDINE DERIVATIVES FOR TREATING HEARING DISEASES” (CILCARE DEV, priority 2021, published 2023):
Structures can show the parent of a compound that is named as a salt.

System: synaptic ribbons in inner hair cells
Test: Ribbon synapse immunostaining and counting in cochlea (Example 8)
Type: in vivo, male CBA/CaJ mice
Method: At T+35 days, after DPOAE/ABR measures, all cochlea (four (4) left cochleae and four (4) right cochleae) per group were rapidly sampled and immediately fixed by PFA perfusion (through the round and oval windows with PFA 4% after creating a small hole at the apex) in order to performed ribbon synapse immunostaining and analysis. Cochleae were fixed for 1 hour in a 4% PFA solution and decalcified in undiluted RDO (10 mL/cochlea for a minimum of 2 hours). The membranous and sensory spiral containing the organ of Corti are dissected out as a flat surface preparation under a dissecting microscope and immunolabelled with appropriate antibodies: • Vglut3 (Vglut3-Guinea Pig IgG; #135 204, Synaptic systems and Anti-Guinea Pig IgG (H+L), #A21450; Thermo Fisher Scientific 647 nm Far-Red) to stain inner hair cell bodies (vesicular glutamate transporter). • Homer (Homer-Rabbit IgG; #GTX103278; Genetex and Anti-Rabbit IgG (H+L) #A11008 Thermo Fisher Scientific 568 nm Red) to stain dendritic proteins of auditory nerve fibers connecting to IHC (post-synaptic). • CtBP2 (CtBP2-Mouse-IgG1; #612044; BD Transduction Laboratories and Anti-Mouse IgG1, #A21121, Thermo Fisher Scientific 488 Green) to stain the ribeye protein as pre-synaptic marker in IHC. • Phalloidin (Alexa Fluor™ Plus 405 Phalloidin; #A30104; Thermo Fisher Scientific 405 Blue).
Images were acquired on a confocal microscope and the slides were analyzed to i) evaluate by visual observation the presence of OHC and IHC (based on nuclei staining with CtBP2 and HC cell body staining with phalloidin) and ii) count the number of synaptic ribbons in selected inner hair cells in cochlea regions coding sound of selected frequency (25, 32 and 45 kHz).
The number of pre- (CtBP2) and post-synaptic (Homer) labeled spots was counted using Imaris software in 3 dimensions for each image. Co-localization of pre- and post-synaptic elements was defined as a distance of maximum […] between CtBP2- and Homer-labeled spots, using an in-house Matlab program to calculate the distances between CtBP2 and Homer labels from the x, y, and z coordinates.

FC(F)(F)c1cccc(C2=CCN(CCc3ccc(-c4ccccc4)cc3)CC2)c1 [paliroden (fumarate salt), 1-[2-(4-biphenylyl)ethyl]-4-(3-trifluoromethylphenyl)-1,2,3,6-tetrahydropyridine]
Number of colocalized ribbons per IHC (25 kHz to 40 kHz, not statistically different to sham): intermediate between traumatized and control mice | Number of pre-synaptic and post-synaptic elements (CtBP2 and Homer) per IHC (32 kHz, vs traumatized untreated, paliroden 50 μg/ear one day post-noise, subset): tended to increase | Colocalized ribbons per IHC (32 kHz, vs traumatized untreated, paliroden 50 μg/ear, subset): increase
